The values that follow are results of earlier work, collected in patent publication US20220257548A1, “ORAL COMBINATION DRUG FORMULATION COMPRISING A NON-STEROIDAL ANTI-INFLAMMATORY DRUG AND A COMPLEMENTARY LOW DOSE OF TRANEXAMIC ACID FOR THE TREATMENT OF MENSTRUAL PAIN ACCOMPANIED WITH EXCESSIVE MENSTRUAL BLOOD LOSS” (ARSTAT, INC, priority 2011, published 2022).

Read-outs that look alike come from different tables or passages of the source.

The test system of series [1] is menstrual blood loss (MBL) in women.
Series [2] deals with menstrual blood loss (MBL) in women with menorrhagia. The note with it: for mean percent change in MBL: Lysteda clinical study.
For series [3] the following is noted: 6 g/day.

As for `O=C(O)Cc1ccccc1Nc1c(Cl)cccc1Cl` [diclofenac sodium], the “reduction in MBL” value in series [1] (50 mg four times daily on Day 1 and three times on the following four days of the menstrual period) is reported as 24%.

As for `CC(C)Cc1ccc(C(C)C(=O)O)cc1` (centres unmarked) [ibuprofen], the “reduction in MBL” value in series [1] (200 mg administered three times daily) was 16%; in series [1] (400 mg administered four times daily), 32%.

On to `Cc1cccc(Nc2ccccc2C(=O)O)c1C` [mefenamic acid], for which the “reduction in MBL” value was 30% in series [1] (500 mg three times daily during the menstrual period, women clinically diagnosed with menorrhagia (baseline MBL>80 mL)) and 19% in series [1] (500 mg three times daily during the menstrual period, women with no clinical diagnosis of menorrhagia (baseline MBL<80 mL)).

`NC[C@H]1CC[C@H](C(=O)O)CC1` [tranexamic acid]: in series [2] (3900 mg/day regimen), the “limitations on social, leisure and physical activities” value was “significantly reduces”. For the same molecule, in series [2] (Lysteda NDA medical review), the “difference versus placebo in reduction of large stains, small and large clots and changes in serum ferritin levels” value is “no statistically significant differences”; the “subjects returned to normal MBL after treatment (mean on-treatment MBL of less than 80 mL)” value is recorded as 44%. For the same molecule, the “mean percent change in MBL” value in series [2] (oral tranexamic acid 1950 mg/day regimen) is “approximately 25%”. In addition, the “mean percent change in MBL” value in series [2] (oral tranexamic acid 3900 mg/day dose) is reported as 39%. For the same molecule, the “risk of gastrointestinal adverse events” value in series [3] was “increased”.
